Experimental data as given in paper PMC7870773, “Investigation of the cytotoxicity of bioinspired coumarin analogues towards human breast cancer cells” (Molecular Diversity, 2020).

Experiments:
[1] = system: MCF-7 breast cancer cells; assay: MTT cell viability, 48-h incubation, complete medium, MCF-7; type: cell-based, human; conditions: for IC50: Homo sapiens, MCF7, 48-h incubation, complete medium, mean ± SD
Method: (§1) Unless otherwise specified, all cell culture experiments were performed in a humidified 5% (v/v) CO2 air atmosphere at 37 °C in complete medium, and cell culture growth media were supplemented with 10% (v/v) foetal bovine serum and 2 mM L-glutamine. Human breast adenocarcinoma cell lines were cultured, maintained at densities lower than 1 × 10^6 cells/cm^2 and discarded upon reaching passage number 60. Stromal healthy cells (human colorectal fibroblasts, 18Co) were cultured using complete DMEM medium supplemented also with 1% (v/v) penicillin–streptomycin. Cells were maintained at densities less than 1 × 10^6 cells/cm^2 and discarded upon reaching passage number 12.
(§2) The full library of coumarins was tested in both breast cancer cell lines, i.e. MCF-7 and MDA-MB-231. Fibroblast were used as “healthy” control. Stocks of compounds 3a–3c, 4a–4m and 5 were dissolved in pure DMSO and then diluted in complete media. (Note that DMSO concentration was kept lower than 0.5% (v/v).) Briefly, MCF-7 and MDA-MB-231 cells were seeded in 96-well plates (3799, Corning Inc., NY, USA) at a density of 1 × 10^4 and 6.7 × 10^3 cells/cm^2, respectively, whereas 18Co fibroblasts were seeded at a density of 1 × 10^4 cells/cm^2. Cells were incubated with coumarin derivatives at concentrations 0.1, 1, 10, 50, 100 and 250 μM for 48 h. Untreated cells (negative) and cells incubated with 0.5% (v/v) DMSO in complete media (positive) were used as controls.
(§3) For each treatment, cell viability was measured via MTT assay after 48-h incubation as following described. Cell culture medium was replaced with 150 μL of fresh medium and 30 μL of MTT solution, and cells were incubated for 4 h (37 °C, 5% CO2). After the formazan crystal formation, cell culture medium was removed from each well and replaced with 200 μL of DMSO. The absorbance was measured at 540-nm wavelength using a plate reader (Synergy 2 Biotek plate reader, Gen5 software).
(§4) IC50 values were calculated (nonlinear regression, normalized response–variable slope) with GraphPad Prism (version 7.04). Values were ranked and classified as: high toxicity, moderate toxicity, poor toxicity and no toxicity. Threshold were set as 60, 80 and > 100 μM, respectively. The selection was used in order to test only the most toxic coumarins under cell culture condition more relevant to the tumour microenvironment, i.e. deprived cell culture media (Sect. 3.3).

[2] = system: MDA-MB-231 breast cancer cells; assay: MTT cell viability, 48-h incubation, complete medium, MDA-MB-231; type: cell-based, human; conditions: for IC50: Homo sapiens, MDA-MB-231, complete medium, mean ± SD
Method: as §1, §2, §3, §4

18Co colon fibroblasts = assay: MTT cell viability, 48-h incubation, 18Co fibroblasts (healthy control); type: cell-based, human; conditions: for IC50: Homo sapiens, Fibroblast, 48-h incubation, healthy control, mean ± SD
Method: as §1, §2, §3, §4

[3] = system: MCF-7 breast cancer cells; assay: MTT cell viability under nutrient-deprived conditions, MCF-7; type: cell-based; conditions: Homo sapiens, MCF7, up to 48 h, average ± SD
Method: (§5) Cells were culture using nutrient-deprived cell culture conditions (i.e. cell culture media with no glucose, L-glutamine, HEPES and sodium pyruvate) to mimic conditions similar to the tumour microenvironment. Note that these experiments were performed only using breast cancer cells. MCF-7 and MDA-MB-231 cells were seeded in 96-well plates (Corning Inc., NY, USA) at a density of 1 × 10^4 and 6.7 × 10^3 cells/cm^2, respectively. Cells were incubated with coumarin derivatives at concentrations of 0.1, 1, 10, 50, 100 and 250 μM up to 48 h. Untreated cells (negative) and cells incubated with 0.5% (v/v) DMSO in complete media (positive) were used as controls.
as §3, §4
(§6) On that basis, we exposed the breast cancer cells to nutrient-deprived conditions where culture media were supplemented only with 2.5% v/v FBS, but not additional glucose, L-glutamine, sodium pyruvate. The coumarins tested were auraptene (4k), umbelliprenin (4l) and analogues 4d, 4c and 4g. […] In similar studies, Zhang et al. and Jun et al. reported the high preferential cytotoxicity of umbelliprenin (4l) and its C6 analogue under NDC against pancreatic cancer cells. It should be therefore noted that these derivatives could represent a potential new tool for treating aggressively metastatic hypoxic tumours. The exact mechanism of action, though, should be further investigated.

[4] = system: MDA-MB-231 breast cancer cells; assay: MTT cell viability under nutrient-deprived conditions, MDA-MB-231; type: cell-based; conditions: Homo sapiens, up to 48 h, average ± SD
Method: as §5, §3, §4, §6

Structure (SMILES)	melting point	IC50 [1]	IC50 [2]	IC50 [3]	IC50 [4]	IC50 (18Co colon fibroblasts)	cytotoxicity in words, MDA-MB-231 [2]	fold more cytotoxic than monosubstituted analogue 4a ([1]; MCF-7 cells, 4g versus 4a)	toxicity in words, 18Co fibroblasts (18Co colon fibroblasts; healthy control cells)
CCCc1cc(=O)oc2cc(O)ccc12 [3a, 7-Hydroxy-4-propyl-2H-chromen-2-one]	130 °C	225 ± 19 µM	206 ± 9 µM	–	–	–	–	–	–
CC(C)=CCCC(C)=CCCC(C)=CCOc1ccc2c(C)cc(=O)oc2c1 [4c, 7-Farnesyloxy-4-methyl-2H-chromen-2-one]	–	105 ± 3 µM	110 ± 29 µM	19 ± 3 µM	51 ± 9 µM	> 250 µM	–	–	–
CCCCCCCCOc1ccc2c(C)cc(=O)oc2c1 [4d, 4-Methyl-7-octyloxy-2H-chromen-2-one]	51 °C	82 ± 19 µM	113 ± 7 µM	29 ± 3 µM	63 ± 5 µM	206 ± 17 µM	slight toxic effect	–	–
CCCCCCCCOc1ccc2c(CCC)cc(=O)oc2c1 [4f, 7-Octyloxy-4-propyl-2H-chromen-2-one]	47 °C	124 ± 39 µM	143 ± 34 µM	–	–	–	–	–	–
CC(C)=CCOc1cc(OCC=C(C)C)c2c(C)cc(=O)oc2c1 [4g, 5,7-Diprenyloxy-4-methyl-2H-chromen-2-one]	90 °C	69 ± 14 µM	144 ± 16 µM	35 ± 9 µM	11 ± 2 µM	216 ± 23 µM	–	approximately 2.5 times	–
CCCc1cc(=O)oc2cc(OC/C=C(\C)CCC=C(C)C)cc(OC/C=C(\C)CCC=C(C)C)c12 [4i, 5,7-Digeranyloxy-4-propyl-2H-chromen-2-one]	79 °C	> 250 µM	133 ± 34 µM	–	–	–	–	–	–
CC(C)=CCOc1ccc2ccc(=O)oc2c1 [4j, 7-Prenyloxy-2H-chromen-2-one]	–	143 ± 11 µM	175 ± 33 µM	–	–	–	–	–	–
CC(C)=CCC/C(C)=C/COc1ccc2ccc(=O)oc2c1 [4k, 7-Geranyloxy-2H-chromen-2-one]	–	70 ± 5 µM	60 ± 4 µM	14 ± 5 µM	12 ± 8 µM	176 ± 62 µM	–	–	some toxicity
CC(C)=CCCC(C)=CCCC(C)=CCOc1ccc2ccc(=O)oc2c1 [4l, 7-Farnesyloxy-coumarin]	–	98 ± 9 µM	88 ± 3 µM	9 ± 1 µM	7 ± 2 µM	> 250 µM	–	–	–
CC(C)=CCC/C(C)=C/CC/C(C)=C/CC/C(C)=C/COc1ccc2ccc(=O)oc2c1 [4m, 7-Geranylgeranyloxy-coumarin]	72 to 73 °C	> 250 µM	187 ± 66 µM	–	–	–	–	–	–
CC(=O)Oc1cc(OC(C)=O)c2c(C)cc(=O)oc2c1 [compound 5, 5,7-Diacetyloxy-4-methyl-2H-chromen-2-one]	–	> 250 µM	> 250 µM	–	–	–	–	–	–
COc1cccc2c1C(=O)c1c(O)c3c(c(O)c1C2=O)C[C@@](O)(C(=O)CO)C[C@@H]3O[C@H]1C[C@H](N)[C@H](O)[C@H](C)O1 [doxorubicin, reference compound]	–	0.97 µM	0.48 µM	–	–	–	–	–	–

Continued, in another order:

melting point	IC50 [1]	IC50 [2]	IC50 [3]	IC50 [4]	Structure (SMILES)	IC50 (18Co colon fibroblasts)	cytotoxicity in words, MDA-MB-231 [2]	fold more cytotoxic than monosubstituted analogue 4a ([1]; MCF-7 cells, 4g versus 4a)	toxicity in words, 18Co fibroblasts (18Co colon fibroblasts; healthy control cells)
–	> 250 µM	> 250 µM	–	–	Cc1cc(=O)oc2cc(O)cc(O)c12 [3b, 5,7-Dihydroxy-4-methyl-2H-chromen-2-one]	–	–	–	–
–	> 250 µM	> 250 µM	–	–	O=c1ccc2ccc(O)cc2o1 [3c, 7-hydroxy-coumarin]	> 250 µM	–	–	–
84 °C	179 ± 35 µM	169 ± 23 µM	–	–	CC(C)=CCOc1ccc2c(C)cc(=O)oc2c1 [4a, 7-Prenyloxy-4-methyl-2H-chromen-2-one]	–	–	–	–
–	129 ± 13 µM	137 ± 9 µM	–	–	CC(C)=CCC/C(C)=C/COc1ccc2c(C)cc(=O)oc2c1 [4b, 7-Geranyloxy-4-methyl-2H-chromen-2-one]	–	–	–	–
89 °C	> 250 µM	> 250 µM	–	–	CCCc1cc(=O)oc2cc(OCC=C(C)C)ccc12 [4e, 7-Prenyloxy-4-propyl-2H-chromen-2-one]	–	–	–	–
71 to 72 °C	234 ± 76 µM	159 ± 61 µM	–	–	CCCc1cc(=O)oc2cc(OCC=C(C)C)cc(OCC=C(C)C)c12 [4h, 5,7-Diprenyloxy-4-propyl-2H-chromen-2-one]	–	–	–	–
